Measured values from patent publication US10011616B2, “Boron-containing small molecules as antiprotozoal1 agents” (MMV MEDICINES FOR MALARIA VENTURE, priority 2015, dated 2018).
Structures can show the parent of a compound that is named as a salt.

Columns and labels:
[1] = tested on: 3D7 strain of Plasmodium falciparum; experiment: In vitro activity against 3D7 strain of Plasmodium falciparum ([3H]-hypoxanthine incorporation assay); assay type: cell-based; details: Erythrocyte, 48 h, P. falciparum 3D7 in human erythrocytes, 2 d, growth inhibition, read-out: IC50: 1 Org. Growth P. falciparum 3D7, 2 d (LPS_00570)
Procedure: In Vitro Activity Against Plasmodium falciparum a) Against 3D7 Strain of Plasmodium falciparum Inhibition of 3D7 strain parasites was assessed using the [^3H]-hypoxanthine incorporation assay (Desjardins, et al. Antimicrob. Agents Chemother. 1979, 16, 710-718). Briefly, parasites were cultured in human erythrocytes (from the Spanish Red Cross blood bank) using RPMI-1640 culture media (Gibco) supplemented with 0.5% Albumax II (Invitrogen), 2% D-sucrose (Sigma-Aldrich), 0.3% glutamine (Sigma-Aldrich), and 5 mM hypoxanthine (Sigma-Aldrich). Cultures were maintained at 37° C. at an atmosphere of 5% O2, 5% CO2, and […]. To assess inhibition, asynchronous parasite cultures with 0.5% parasitemia and 2% hematocrit were exposed to 3-fold serial dilutions of test compounds for 24 hours in 96 well plate cultures (Costar #3894). After 24 hours, [^3H]-hypoxanthine was added, plates were incubated for an additional 24 hours, and parasites were harvested on glass fiber filters (Wallac #1450-421) using a cell harvester 96 (TOMTEC, Perkin Elmer). Filters were dried on scintillator sheets (MeltiLex A, PerkinElmer #1450-441) to determine incorporation of [^3H]-hypoxanthine. Radioactivity was measured using a microbeta counter (Perkin Elmer). Data are normalized using the incorporation of the positive control (infected erythrocytes without drug). IC50 values were determined using Excel and Grafit 5 software. Values were determined from at least three independent experiments, and standard deviations were calculated.

[2] = tested on: W2 strain of Plasmodium falciparum; experiment: In vitro activity against W2 strain of Plasmodium falciparum (YOYO-1 flow cytometry); assay type: cell-based; details: Erythrocyte, 48 h, P. falciparum W2 in human erythrocytes, 2 d, growth inhibition, read-out: IC50: 1 Org. Growth P. falciparum W2, 2 d (LPS_00451)
Procedure: In Vitro Activity Against Plasmodium falciparum
b) Against W2 Strain of Plasmodium falciparum
W2 strain P. falciparum parasites were cultured in human erythrocytes and RPMI-1640 culture media with either 10% human serum or 0.5% Albumax serum substitute under 3% O2, 5% CO2, and 92% N2. Parasites synchronized to ring stage by treatments with 5% D-sorbitol were cultured with serial dilutions of benzoxaboroles from 5 to 10 mM stocks in 96 well microplate cultures including 200 μL of media/well, 2% hematocrit, and 1% parasitemia. At the completion of 48 h incubations, when untreated cultures contained new rings, parasites were fixed with 2% formaldehyde for 48 h, and 5 μL aliquots were transferred to another 96 well plate containing 150 μL/well of staining solution (100 mM NH4Cl, 0.1% Triton X-100, and 1 nM YOYO-1 in PBS). Parasites per erythrocyte were then determined by flow cytometry from plots of forward scatter against fluorescence (excitation 488 nm, emission 520 nm) using a FacSort flow cytometer (Beckton Dickinson) equipped with an AMS Loader (Cytek Development). All values were normalized to percent control activity, and IC50s were calculated using the Prism 3.0 program (GRAPHPAD Software). Goodness of fit was assessed by R^2 values, and meaningful dose-response curves yielded R^2 values >0.95.

`Cc1c(Oc2cnc(C(=O)N[C@@H](CO)C(C)C)cn2)ccc2c1B(O)OC2` [Example 25, (R)—N-(1-hydroxy-3-methylbutan-2-yl)-5-(1-hydroxy-7-methyl-1,3-dihydrobenzo[c][1,2]oxaborol-6-yloxy)pyrazine-2-carboxamide] showed an IC50 [1] of 0.466 µM and an IC50 [2] of 0.149 µM.

Work on `Cc1c(Oc2cnc(C(=O)N[C@@H](CO)c3ccccc3)cn2)ccc2c1B(O)OC2` [Example 26, (R)—N-(2-hydroxy-1-phenylethyl)-5-(1-hydroxy-7-methyl-1,3-dihydrobenzo[c][1,2]oxaborol-6-yloxy)pyrazine-2-carboxamide] yielded an IC50 [1] of 0.161 µM and an IC50 [2] of 0.103 µM.

`Cc1c(Oc2cnc(C(=O)N[C@@H](CO)Cc3ccccc3)cn2)ccc2c1B(O)OC2` [Example 27, (R)—N-(1-hydroxy-3-phenylpropan-2-yl)-5-(1-hydroxy-7-methyl-1,3-dihydrobenzo[c][1,2]oxaborol-6-yloxy)pyrazine-2-carboxamide] showed an IC50 [1] of 0.505 µM and an IC50 [2] of 0.115 µM.

In the case of `CCCC[C@H](CO)NC(=O)c1cnc(Oc2ccc3c(c2C)B(O)OC3)cn1` [Example 28, (R)-5-(1-hydroxy-7-methyl-1,3-dihydrobenzo[c][1,2]oxaborol-6-yloxy)-N-(1-hydroxyhexan-2-yl)pyrazine-2-carboxamide], the IC50 [1] is reported as 0.215 µM and the IC50 [2] is reported as 0.0849 µM.

`C=C[C@@H](CO)NC(=O)c1cnc(Oc2ccc3c(c2C)B(O)OC3)cn1` [Example 29, (S)-5-(1-hydroxy-7-methyl-1,3-dihydrobenzo[c][1,2]oxaborol-6-yloxy)-N-(1-hydroxybut-3-en-2-yl)pyrazine-2-carboxamide] gave an IC50 [1] of 0.764 µM and an IC50 [2] of 0.828 µM.

Work on `C=C[C@H](CO)NC(=O)c1cnc(Oc2ccc3c(c2C)B(O)OC3)cn1` [Example 30, (R)-5-(1-hydroxy-7-methyl-1,3-dihydrobenzo[c][1,2]oxaborol-6-yloxy)-N-(1-hydroxybut-3-en-2-yl)pyrazine-2-carboxamide] yielded an IC50 [1] of 0.536 µM and an IC50 [2] of 0.317 µM.

`Cc1c(Oc2cnc(C(=O)N[C@H](CO)C3CC3)cn2)ccc2c1B(O)OC2` [Example 31, (S)—N-(1-cyclopropyl-2-hydroxyethyl)-5-(1-hydroxy-7-methyl-1,3-dihydrobenzo[c][1,2]oxaborol-6-yloxy)pyrazine-2-carboxamide] was tested, and the IC50 [1] was 1.09 µM and the IC50 [2] was 0.643 µM.

For `COC[C@H](CO)NC(=O)c1cnc(Oc2ccc3c(c2C)B(O)OC3)cn1` [Example 32, (S)—N-(1-hydroxy-3-methoxypropan-2-yl)-5-((1-hydroxy-7-methyl-1,3-dihydrobenzo[c][1,2]oxaborol-6-yl)oxy)pyrazine-2-carboxamide], the IC50 [1] was 0.796 µM and the IC50 [2] was 0.512 µM.

`Cc1c(Oc2cnc(C(=O)N[C@@H](CO)CC(F)(F)F)cn2)ccc2c1B(O)OC2` [Example 33, (R)-5-(1-hydroxy-7-methyl-1,3-dihydrobenzo[c][1,2]oxaborol-6-yloxy)-N-(4,4,4-trifluoro-1-hydroxybutan-2-yl)pyrazine-2-carboxamide] showed an IC50 [1] of 0.149 µM and an IC50 [2] of 0.0822 µM.

For `Cc1c(Oc2cnc(C(=O)N[C@H](CO)CC(F)(F)F)cn2)ccc2c1B(O)OC2` [Example 34, (S)-5-(1-hydroxy-7-methyl-1,3-dihydrobenzo[c][1,2]oxaborol-6-yloxy)-N-(4,4,4-trifluoro-1-hydroxybutan-2-yl)pyrazine-2-carboxamide], the IC50 [1] was 0.452 µM and the IC50 [2] was 0.35 µM.

`CSC[C@H](CO)NC(=O)c1cnc(Oc2ccc3c(c2C)B(O)OC3)cn1` [Example 35, (S)—N-(1-hydroxy-3-(methylthio)propan-2-yl)-5-((1-hydroxy-7-methyl-1,3-dihydrobenzo[c][1,2]oxaborol-6-yl)oxy)pyrazine-2-carboxamide] gave an IC50 [1] of 0.0737 µM and an IC50 [2] of 0.37 µM.

Work on `Cc1c(Oc2cnc(C(=O)N[C@@H](CO)CS(C)(=O)=O)cn2)ccc2c1B(O)OC2` [Example 36, (S)—N-(1-hydroxy-3-(methylsulfonyl)propan-2-yl)-5-(1-hydroxy-7-methyl-1,3-dihydrobenzo[c][1,2]oxaborol-6-yloxy)pyrazine-2-carboxamide] yielded an IC50 [1] of 0.472 µM and an IC50 [2] of 0.201 µM.

Compound `Cc1c(Oc2cnc(C(=O)N[C@@H](CO)CCC(F)(F)F)cn2)ccc2c1B(O)OC2` [Example 37, (R)-5-(1-hydroxy-7-methyl-1,3-dihydrobenzo[c][1,2]oxaborol-6-yloxy)-N-(5,5,5-trifluoro-1-hydroxypentan-2-yl)pyrazine-2-carboxamide] has an IC50 [1] of 0.48 µM and an IC50 [2] of 0.23 µM.

`Cc1c(Oc2cnc(C(=O)N[C@H](CO)CCC(F)(F)F)cn2)ccc2c1B(O)OC2` [Example 38, (S)-5-(1-hydroxy-7-methyl-1,3-dihydrobenzo[c][1,2]oxaborol-6-yloxy)-N-(5,5,5-trifluoro-1-hydroxypentan-2-yl)pyrazine-2-carboxamide] gave an IC50 [1] of 0.959 µM and an IC50 [2] of 0.352 µM.

In the case of `Cc1c(Oc2cnc(C(=O)NC(C)C(C)O)cn2)ccc2c1B(O)OC2` (stereo not drawn) [Example 39, 5-(1-hydroxy-7-methyl-1,3-dihydrobenzo[c][1,2]oxaborol-6-yloxy)-N-(3-hydroxybutan-2-yl)pyrazine-2-carboxamide], the IC50 [1] is reported as 1.46 µM and the IC50 [2] is reported as 0.513 µM.

With `Cc1c(Oc2cnc(C(=O)N3CC(C)(O)C3)cn2)ccc2c1B(O)OC2` [Example 41, (3-hydroxy-3-methylazetidin-1-yl) (5-((1-hydroxy-7-methyl-1,3-dihydrobenzo[c][1,2]oxaborol-6-yl)oxy)pyrazin-2-yl)methanone] the IC50 [1] was 0.0706 µM and the IC50 [2] was 0.0326 µM.

With `Cc1c(Oc2cnc(C(=O)N[C@@H]3CCC[C@H]3O)cn2)ccc2c1B(O)OC2` [Example 42, 5-((1-hydroxy-7-methyl-1,3-dihydrobenzo[c][1,2]oxaborol-6-yl)oxy)-N-((1R,2R)-2-hydroxycyclopentyl)pyrazine-2-carboxamide] the IC50 [1] was 0.245 µM and the IC50 [2] was 0.133 µM.

`CCC[C@@H](NC(=O)c1cnc(Oc2ccc3c(c2C)B(O)OC3)cn1)C(C)(C)O` [Example 43, (R)—N-(2-hydroxy-2-methylhexan-3-yl)-5-((1-hydroxy-7-methyl-1,3-dihydrobenzo[c][1,2]oxaborol-6-yl)oxy)pyrazine-2-carboxamide] gave an IC50 [1] of 0.553 µM and an IC50 [2] of 0.26 µM.

`CCC[C@H](NC(=O)c1cnc(Oc2ccc3c(c2C)B(O)OC3)cn1)C(C)(C)O` [Example 44, (S)—N-(2-hydroxy-2-methylhexan-3-yl)-5-(1-hydroxy-7-methyl-1,3-dihydrobenzo[c][1,2]oxaborol-6-yloxy)pyrazine-2-carboxamide] gave an IC50 [1] of 0.217 µM and an IC50 [2] of 0.129 µM.

For `CC[C@@H](NC(=O)c1cnc(Oc2ccc3c(c2C)B(O)OC3)cn1)C(C)(C)O` [Example 45, (R)—N-(2-hydroxy-2-methylpentan-3-yl)-5-(1-hydroxy-7-methyl-1,3-dihydrobenzo[c][1,2]oxaborol-6-yloxy)pyrazine-2-carboxamide], the IC50 [1] was 0.222 µM and the IC50 [2] was 0.0918 µM.

`Cc1c(Oc2cnc(C(=O)N[C@H]3CCC[C@@H]3O)cn2)ccc2c1B(O)OC2` [Example 46, 5-(1-hydroxy-7-methyl-1,3-dihydrobenzo[c][1,2]oxaborol-6-yloxy)-N-((1S,2S)-2-hydroxycyclopentyl)pyrazine-2-carboxamide] showed an IC50 [1] of 0.537 µM and an IC50 [2] of 0.149 µM.

Work on `Cc1c(Oc2cnc(C(=O)N[C@@H](C)C(C)(C)O)cn2)ccc2c1B(O)OC2` [Example 47, (S)—N-(3-hydroxy-3-methylbutan-2-yl)-5-(1-hydroxy-7-methyl-1,3-dihydrobenzo[c][1,2]oxaborol-6-yloxy)pyrazine-2-carboxamide] yielded an IC50 [1] of 0.327 µM and an IC50 [2] of 0.202 µM.

`Cc1c(Oc2cnc(C(=O)N[C@H](C)C(C)(C)O)cn2)ccc2c1B(O)OC2` [Example 48, (R)—N-(3-hydroxy-3-methylbutan-2-yl)-5-(1-hydroxy-7-methyl-1,3-dihydrobenzo[c][1,2]oxaborol-6-yloxy)pyrazine-2-carboxamide] gave an IC50 [1] of 0.374 µM and an IC50 [2] of 0.265 µM.

Work on `Cc1c(Oc2cnc(C(=O)N3CCNC[C@H]3CO)cn2)ccc2c1B(O)OC2` [Example 50, (S)-(5-(1-hydroxy-7-methyl-1,3-dihydrobenzo[c][1,2]oxaborol-6-yloxy)pyrazin-2-yl) (2-(hydroxymethyl)piperazin-1-yl)methanone Hydrochloric Acid Salt] yielded an IC50 [1] of 0.171 µM and an IC50 [2] of 0.0982 µM.
